Data from paper PMC7807814 (ACS Omega, 2020).

Target: GST–VCB protein complex (Homo sapiens, UniProt P40337)
Assay type: binding
Details: reported FP Kd versus TR-FRET Ki

Chain of GST–VCB protein complex (P40337 54-213): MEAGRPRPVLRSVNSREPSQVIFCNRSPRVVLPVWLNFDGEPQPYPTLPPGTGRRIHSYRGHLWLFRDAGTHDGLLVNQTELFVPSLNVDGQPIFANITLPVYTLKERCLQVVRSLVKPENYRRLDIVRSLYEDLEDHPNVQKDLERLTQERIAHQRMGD
Chain of GST–VCB protein complex (Q15369 17-112, further chain): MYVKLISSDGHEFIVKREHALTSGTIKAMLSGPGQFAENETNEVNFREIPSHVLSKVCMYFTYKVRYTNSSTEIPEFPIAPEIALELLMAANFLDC
Chain of GST–VCB protein complex (Q15370 whole entry, further chain): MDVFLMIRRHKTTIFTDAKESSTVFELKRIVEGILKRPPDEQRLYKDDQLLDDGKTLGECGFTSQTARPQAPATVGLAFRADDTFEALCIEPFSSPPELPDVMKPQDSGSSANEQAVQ

Compound | sensitivity of TR-FRET assay over FAM–HIF–1α peptide (19 mer)-based FP assay [fold]
CC(=O)N[C@H](C(=O)N1C[C@H](O)C[C@H]1C(=O)NCc1ccc(-c2scnc2C)cc1)C(C)(C)C [VH032 (1), (2S,4R)-1-((S)-2-Acetamido-3,3-dimethylbutanoyl)-4-hydroxy-N-(4-(4-methylthiazol-5-yl)benzyl)pyrrolidine-2-carboxamide] | 4.49
Cc1ncsc1-c1ccc(CNC(=O)[C@@H]2C[C@@H](O)CN2C(=O)[C@@H](NC(=O)C2(C#N)CC2)C(C)(C)C)cc1 [VH298 (2), (2S,4R)-1-((S)-2-(1-Cyanocyclopropanecarboxamido)-3,3-dimethylbutanoyl)-4-hydroxy-N-(4-(4-methylthiazol-5-yl)benzyl)pyrrolidine-2-carboxamide] | 4.23
